Columns and labels:
[1] = test system: cultured mammospheres; assay: Morphology and morphometry of cultured mammospheres treated with serotonergic agents; assay type: cell-based, mouse; conditions: for Mammosphere morphology (qualitative): 1 μg·ml−1, replenished each day, 7-day incubation
Procedure: Qualitative comparison of typical mammospheres in cultures treated with (a) control; (b) 5-HT; (c) methysergide; (d) PCPA. Each of the agents was added to the medium at a concentration of 1 μg·ml^−1 and replenished each day during a 7-day incubation. (e) histogram depicting the median areas (in arbitrary units) of mammospheres sorted by size (n=350, 2 replicate experiments) of control- and methysergide-treated cultures.
In addition to the effects on gene expression shown above, perturbing 5-HT signaling caused morphological changes in mammosphere cultures. Under control conditions the mammospheres were comprised of a boundary layer surrounding an interior lumenal space (FIG. 5a). Qualitatively, mammospheres treated with different serotonergic agents had markedly different structures. […] Those treated with PCPA were very distinctive because the boundary layer was consistently thin, and, there was a very high contrast between the dark boundary and light central space.
We performed a morphometric comparison of control and methysergide-treated mammospheres employing a Macintosh computer using the public domain NIH Image program (developed at the U.S. National Institutes of Health and available on the Internet at http://rsb.info.nih.gov/nih-image/). Threshold was adjusted to automatically outline the mammospheres, and the organoids were sorted into a frequency distribution based on particle sizes. The median size of the methysergide-treated mammospheres was about 40% larger than the control mammospheres (p<0.01; Mann-Whitney U-test; FIG. 5e).
(§1) Primary mouse mammary epithelium was prepared from nulliparous mice by enzymatic digestion and differential trypsinization, modifying the method of Imagawa (Pedchenko, V. K. & Imagawa, W. T. Mammogenic hormones differentially modulate keratinocyte growth factor (KGF)-induced proliferation and KGF receptor expression in cultured mouse mammary gland epithelium. Endocrinology 139,2519-2526 (1998)). Enriched epithelial cells (2×10^5 cells per well) were plated in basement membrane (Matrigel, 0.5 ml/well, BD Biosciences) reconstituted in a 12-well plate so that they formed mammospheres. They were pre-incubated for seven days, and treated with ovine PRL (1 μg/ml) for 2 days. The cell culture experiments were replicated 2-3 times in all cases.

[2] = test system: WAP gene expression in cultured mammospheres; assay: Milk protein gene expression (RT-PCR) in mammosphere cultures treated with serotonergic agents; assay type: cell-based, mouse; conditions: cells cultured in 1% fetal serum, WAP constitutively expressed at a low level
Procedure: Primary mouse mammary cultures were treated with PRL, methysergide (Methy.), or 5-HT as noted (+). RT-PCR products for various genes expressed in the mammary gland are shown by the labels at the left margin.
We tested whether 5-HT might have an autocrine/paracrine effect first by examining the expression of various genes in mammosphere cultures (FIG. 4), and then by morphometry (FIG. 5). Using a broad-spectrum 5-HT receptor antagonist methysergide, in combination with PRL, we observed that the expression levels of several mammary gland genes, including whey acidic protein (WAP), glycosylated cell adhesion molecule-1 (GlyCAM-1) and […]. The effects of both 5-HT and methysergide (agonist and antagonist) were tested using cells cultured in 1% fetal serum, wherein the WAP gene is constitutively expressed at a low level. Under these conditions 5-HT suppressed WAP, and methysergide induced WAP.
Primary mouse mammary epithelium was prepared from nulliparous mice by enzymatic digestion and differential trypsinization, modifying the method of Imagawa (Pedchenko, V. K. & Imagawa, W. T. Mammogenic hormones differentially modulate keratinocyte growth factor (KGF)-induced proliferation and KGF receptor expression in cultured mouse mammary gland epithelium. Endocrinology 139,2519-2526 (1998)). […]

[3] = test system: lactating dams (mice); assay: Milk yield of nursing dams given carbidopa injections (nursing-related weight loss as index of milk yield); assay type: in vivo
Procedure: Nursing dams were given 4 injections of carbidopa (1 mg/kg body weight) at 12 h intervals (or control vehicle). After the final injection the pups were removed from the dam for 4 h. At the end of 4 h the dams were weighed and reunited with the pups to nurse for 1 h. After the nursing interval the dams were again weighed and the nursing-related weight losses were analyzed as an index of milk yield (Table 1). The litters of lactating dams (mice) were adjusted to 8 pups on day 1 postpartum. Carbidopa (1 mg/kg in 45% hydroxypropyl-β-cyclodextrin) or control vehicle were injected at approximately 12 h intervals beginning in the evening of postpartum day 3. After 4 injections (morning of day 5) pups were separated from the dams for 4 h. At the end of separation interval, the dams were injected with oxytocin (0.2U) and both the dams and their litters and were weighed. The litters were reunited with the dams for a 1 h nursing interval. The weights of the dams were measured after nursing and the differences in the weights of the dams before and after nursing are reported as milk yield. The percent increases with carbidopa-treatment are shown for statistically significant variables. […] Numbers of animals in treatment groups are in parentheses.

[4] = test system: TPH mRNA in primary mouse mammary epithelial organoids; assay: TPH mRNA induction in primary cultures of mammary epithelial organoids; assay type: cell-based
Procedure: (b) TPH induction by milk stasis. Contralateral #3 glands were either open and suckled (+) or sealed with cyanoacrylate glue and unsuckled (−). RT-PCR was performed for TPH and glyceraldehyde-phosphate-dehydrogenase (GPDH), as shown.
(§2) Having established that mammary gland TPH expression was induced in vivo we studied TPH induction in primary cultures of mammary epithelial organoids. These organoids, sometimes referred to as “mammospheres,” secrete milk proteins, fluids and ions vectorially into a closed central lumen when cultured with lactogenic hormones. TPH increased slowly for at least 48 h following addition of PRL to the medium, and the optimum PRL dose was 1 μg/ml (approximately 20 nM) (FIG. 2a). […] First, the time course of TPH mRNA induction was much slower that other genes known to be directly regulated by PRL. Secondly, the in vitro induction was blocked by cycloheximide; and thirdly, the TPH promoter was not induced by PRL in reporter gene assays (unpublished results).
as §1

[5] = test system: TPH promoter; assay: TPH promoter reporter gene assays; assay type: cell-based; conditions: unpublished results
Procedure: as §2

[6] = carbidopa 1 mg/kg, 4 injections

N[C@@H](Cc1ccc(Cl)cc1)C(=O)O (racemic) [PCPA, p-chloro-phenylalanine]
Mammosphere morphology (qualitative) [1]: easily visible central lumena

NCCc1c[nH]c2ccc(O)cc12 [5-HT, 5-hydroxytryptamine]
Effect on WAP gene expression [2]: suppressed | Mammosphere size vs controls (qualitative) ([1]; 1 μg·ml−1, 7-day incubation, no quantitative morphometry): smaller than the controls | Mammosphere morphology (qualitative) [1]: either filled or collapsed, with no obvious lumen

C[C@@](Cc1ccc(O)c(O)c1)(NN)C(=O)O [Carbidopa, S-(−)-α-hydrazino-3,4-dihydroxy-2-methylbenzenepropanoic acid]
Percent increase in litter weight relative to dam weight with carbidopa treatment vs vehicle control [3, 6]: >8.1% | Percent increase in milk yield with carbidopa treatment vs vehicle control [3, 6]: >16.7% | Milk Yield (difference in dam weight before and after 1 h nursing) ([3]; carbidopa 1 mg/kg, 4 injections at 12 h intervals, 4 h separation, 1 h nursing, mean ± s.e.m.): 2.1 ± 0.1 g | Percent increase in litter (pup) weight with carbidopa treatment vs vehicle control ([3]; carbidopa 1 mg/kg, 4 injections, absolute basis): >11.6% | Litter/Dam (litter weight relative to dam weight) ([3]; carbidopa 1 mg/kg, 4 injections, mean ± s.e.m.): 0.93 ± 0.03 | Litter Weight ([3]; litters of 8 pups, carbidopa 1 mg/kg to dam, 4 injections, mean ± s.e.m.): 36.5 ± 1.8 g

C[C@@H]1C[C@@H]([C@H](O)CC2CC(=O)NC(=O)C2)C(=O)[C@@H](C)C1 [cycloheximide]
Effect on in vitro induction of TPH by PRL [4]: blocked

CC[C@@H](CO)NC(=O)[C@@H]1C=C2c3cccc4c3c(cn4C)C[C@H]2N(C)C1 [methysergide]
Effect on WAP gene expression [2]: induced | Median size of mammospheres, increase vs control mammospheres ([1]; 1 μg·ml−1, 7-day incubation, p<0.01, Mann-Whitney U-test): about 40% | Mammosphere morphology (qualitative) [1]: easily visible central lumena

B1: PRL: prolactin, lactogenic hormone; ovine PRL added to the mammosphere cultures (protein, UniProt P01240 31-229, looked up)
Prolactin: TPVCPNGPGNCQVSLRDLFDRAVMVSHYIHNLSSEMFNEFDKRYAQGKGFITMALNSCHTSSLPTPEDKEQAQQTHHEVLMSLILGLLRSWNDPLYHLVTEVRGMKGVPDAILSRAIEIEEENKRLLEGMEMIFGQVIPGAKETEPYPVWSGLPSLQTKDEDARHSAFYNLLHCLRRDSSKIDTYLKLLNCRIIYNNNC
Optimum dose for TPH mRNA induction [4]: 1 µg/mL | Optimum dose for TPH mRNA induction (molar) [4]: approximately 20 nM | Induction of the TPH promoter [5]: not induced

From patent US7241797B2, “Method of increasing milk production” (University of Cincinnati, priority 2002, dated 2007)
